According to publication PMC10455244, “Alpha-Mangostin: A Potent Inhibitor of TRPV3 and Pro-Inflammatory Cytokine Secretion in Keratinocytes” (International Journal of Molecular Sciences, 2023):

Biological target: T1, TRPV3 (G573C) (Homo sapiens, UniProt Q8NET8, G573C)
T1 construct: host or cells: HEK 293T (transient transfection, pEGFP-N1 co-transfected as a marker)
T1 sequence (Q8NET8 1-790 G573C): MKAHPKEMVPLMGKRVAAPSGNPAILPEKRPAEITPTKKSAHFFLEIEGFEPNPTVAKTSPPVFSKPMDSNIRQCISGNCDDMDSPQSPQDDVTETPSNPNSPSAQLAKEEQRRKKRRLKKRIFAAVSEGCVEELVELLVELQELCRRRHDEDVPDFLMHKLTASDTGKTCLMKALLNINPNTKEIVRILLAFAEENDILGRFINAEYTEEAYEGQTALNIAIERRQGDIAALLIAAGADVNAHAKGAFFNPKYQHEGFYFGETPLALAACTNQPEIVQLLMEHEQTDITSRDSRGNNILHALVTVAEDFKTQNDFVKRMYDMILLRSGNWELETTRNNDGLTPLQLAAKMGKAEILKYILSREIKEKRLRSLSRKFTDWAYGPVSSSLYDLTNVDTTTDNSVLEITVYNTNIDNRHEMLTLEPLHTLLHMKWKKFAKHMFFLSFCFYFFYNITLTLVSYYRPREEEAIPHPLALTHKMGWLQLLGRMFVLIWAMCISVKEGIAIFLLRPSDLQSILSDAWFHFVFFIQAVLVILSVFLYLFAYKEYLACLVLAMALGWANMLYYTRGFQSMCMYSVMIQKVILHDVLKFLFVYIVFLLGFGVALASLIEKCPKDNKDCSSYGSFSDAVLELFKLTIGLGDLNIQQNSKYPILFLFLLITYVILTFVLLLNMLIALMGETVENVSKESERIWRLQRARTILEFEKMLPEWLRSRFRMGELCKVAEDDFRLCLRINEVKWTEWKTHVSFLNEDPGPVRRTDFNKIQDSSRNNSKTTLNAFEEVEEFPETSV
Test: Whole-cell patch-clamp, spontaneous current of TRPV3 G573C mutant in HEK 293T cells
Type: cell-based
Settings: −100 mV, read-out: IC50, inhibition of spontaneous current of TRPV3 G573C mutant
Description: For electrophysiology recording and calcium measurement, 10 µM 74a (a TRPV3 inhibitor) was added about 6 h after transfection to inhibit channel activities and prevent cell death. First, the electrophysiology activities of the mutations were recorded using a whole-cell patch-clamp. Our data presented spontaneous TRPV3 currents when −100 mV to 100 mV ramp pulses were applied, which dramatically declined with the addition of 1 µM alpha-mangostin (Figure 4A).
Figure 4 Alpha-mangostin inhibited the activity of hyperactive TRPV3 mutant channels and rescued mutation-induced cell death. (A) Alpha-mangostin inhibited the channel current in representative TRPV3 (G573S)- and TRPV3 (G573C)-expressing HEK 293T cells. […] Currents were normalized to the response at −100 mV before adding alpha-mangostin. (C) Alpha-mangostin inhibited TRPV3-mediated intracellular calcium increase in TRPV3 (G573S)-expressing HEK 293T cells. […] The bar graph on the right summarizes the change in the intracellular calcium rise inhibited by alpha-mangostin. […]
In the whole-cell configuration, voltage ramps from −100 to +100 mV over 1 s were applied every 20 s and the holding potential was set at 0 mV. Sampling at 10 kHz and low-pass filtering at 5 kHz (w-c) were applied for all recorded currents. Recorded data were analyzed using Clampfit ver. […]

In the case of `COc1c(O)cc2oc3cc(O)c(CC=C(C)C)c(O)c3c(=O)c2c1CC=C(C)C` [Alpha-mangostin], the IC50 is reported as 1.94 ± 0.4 µM.
